For 17 molecules, GI50 and TGI results are on record in PubChem BioAssay (NCI).

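Five concentrations, 48 hours, 96-well plates. Here, GI50 denotes the concentration required for 50% inhibition of growth. The concentration for full growth arrest is given as TGI.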

Among the test systems are SNB-75 CNS; 786-0 renal; UO-31 renal; EKVX NSCLC; SK-MEL-2 melanoma; HOP-62 NSCLC; HCC-2998 colon; OVCAR-8 ovarian; KM12 colon; LOX IMVI melanoma.
Common to all, as to assay: inhibition of tumour cell growth, NCI panel, 48 h

Turning to `COc1ccc2nc(-c3ccccc3)cc(Nc3cccc(C(C)=O)c3)c2c1`, the GI50 was 12.2 µM with SNB-75 CNS; 2.66 µM in the test on 786-0 renal; 22.8 µM in the test with UO-31 renal; 13.6 µM in the test with EKVX NSCLC; 38.8 µM in the test on SK-MEL-2 melanoma; 2.08 µM with HOP-62 NSCLC. The figures for the GI50 in the test on HCC-2998 colon and in the test with OVCAR-8 ovarian were 13.2 µM and 2.23 µM, respectively. The TGI in the test on SNB-75 CNS was 38.4 µM; in the test with 786-0 renal, 9.64 µM; in the test on UO-31 renal, above 100 µM; in the test on EKVX NSCLC, 34.3 µM; in the test on SK-MEL-2 melanoma, above 100 µM; in the test with HOP-62 NSCLC, 4.88 µM. The TGI stood at 45.1 µM in the test on HCC-2998 colon and 14.8 µM in the test on OVCAR-8 ovarian.
As to `NC(=O)CC1(O)C=C(Br)C(=O)C(Br)=C1`, the GI50 with SNB-75 CNS is 12.8 µM; with KM12 colon, 13.8 µM; in the test with 786-0 renal, 8.76 µM; with UO-31 renal, 2.17 µM; with LOX IMVI melanoma, 3.65 µM; in the test on EKVX NSCLC it was 5.84 µM. Moreover, the GI50 with SK-MEL-2 melanoma is 5.21 µM; in the test on HOP-62 NSCLC, 26.1 µM; in the test on HCC-2998 colon, 18.2 µM; with OVCAR-8 ovarian, 2.88 µM. The TGI was 26.2 µM in the test on SNB-75 CNS; 27.2 µM with KM12 colon; above 35.7 µM in the test on 786-0 renal; 11.2 µM in the test with UO-31 renal; 13 µM in the test with LOX IMVI melanoma; 19.7 µM in the test with EKVX NSCLC. Besides, the TGI was 18.4 µM with SK-MEL-2 melanoma, above 61.2 µM in the test with HOP-62 NSCLC, 33 µM in the test on HCC-2998 colon and 9.42 µM in the test with OVCAR-8 ovarian.
`COC(=O)C1(C)CC2C(C)(CCC3(C)C4=CC=C5C(=CC(=O)C(O)=C5C)C4(C)CCC23C)CC1O` (stereo unspecified): the TGI was determined as 3.54 µM in the test with SNB-75 CNS; 4.09 µM in the test with KM12 colon; 0.477 µM with 786-0 renal; 3.19 µM in the test on UO-31 renal; 2.7 µM in the test on EKVX NSCLC; 2.94 µM with SK-MEL-2 melanoma. For the same molecule, the values for the TGI in the test with HOP-62 NSCLC, with HCC-2998 colon and in the test on OVCAR-8 ovarian were 3.51 µM, 2.9 µM and 2.38 µM, respectively.
As for `CCN(CC)CC(=O)NC1c2ccccc2Oc2c(C)cccc21` (stereo unspecified), the TGI in the test on SNB-75 CNS, in the test with 786-0 renal, with UO-31 renal, with LOX IMVI melanoma, in the test with EKVX NSCLC and in the test with HOP-62 NSCLC was above 100 µM throughout. Further, the TGI with HCC-2998 colon and in the test on OVCAR-8 ovarian was above 100 µM in each case.
As to `COc1ccc2c(c1)[n+](=O)c(C(=O)C/C(=N/NC(=O)C[N+](C)(C)C)C(=O)Nc1cccc(C)c1C)c(C)n2O`, the TGI with SNB-75 CNS, in the test with KM12 colon, with 786-0 renal, in the test on UO-31 renal, with EKVX NSCLC and in the test on SK-MEL-2 melanoma was above 100 µM throughout. The TGI in the test with HOP-62 NSCLC, in the test on HCC-2998 colon and in the test on OVCAR-8 ovarian was above 100 µM in each case.
`COC(=O)C1C(=O)O[C@@H](c2ccc(OC)c(OC)c2OC)C1C(=O)OC` (mixture of isomers): the TGI in the test on SNB-75 CNS, with KM12 colon, in the test with 786-0 renal, in the test on UO-31 renal, in the test with LOX IMVI melanoma and with EKVX NSCLC was above 100 µM in each case. The TGI in the test with HOP-62 NSCLC, with HCC-2998 colon and with OVCAR-8 ovarian was above 100 µM each time.
In the case of `O=C(Nc1ccccc1C(F)(F)F)c1ccc(NC2=C(Cl)C(=O)N(Cc3ccccc3)C2=O)cc1`, the GI50 was 36.5 µM with SNB-75 CNS; above 100 µM with KM12 colon; 33.7 µM with 786-0 renal; 18.8 µM in the test on LOX IMVI melanoma; 86.9 µM in the test on EKVX NSCLC; 40.6 µM in the test with SK-MEL-2 melanoma. Also, the GI50 in the test with HOP-62 NSCLC is 21.5 µM; with HCC-2998 colon, 16.3 µM; in the test with OVCAR-8 ovarian, 28.7 µM. Besides, the TGI in the test with SNB-75 CNS, with KM12 colon, with 786-0 renal, with LOX IMVI melanoma, with EKVX NSCLC and in the test on SK-MEL-2 melanoma was above 100 µM each time. In addition, the TGI was 43.1 µM in the test with HOP-62 NSCLC, 35.6 µM in the test on HCC-2998 colon and above 100 µM in the test on OVCAR-8 ovarian.
`CC(=O)Nc1ccc(/C=C2\N=C(c3ccccc3)OC2=O)cc1`: the TGI in the test with SNB-75 CNS, with KM12 colon, with 786-0 renal, in the test on UO-31 renal, in the test with LOX IMVI melanoma and with EKVX NSCLC was above 100 µM in each case. Also, the TGI with SK-MEL-2 melanoma, in the test on HOP-62 NSCLC and with HCC-2998 colon was above 100 µM in each case.
Take `C[C@H](CS)C(=O)N1c2ccccc2C[C@H]1C(=O)O`: the TGI in the test with SNB-75 CNS, with KM12 colon, in the test on 786-0 renal, with UO-31 renal, in the test on EKVX NSCLC and in the test on SK-MEL-2 melanoma was above 100 µM in each case. Also, the TGI in the test on HOP-62 NSCLC, in the test with HCC-2998 colon and in the test on OVCAR-8 ovarian was above 100 µM in each case.
With `CCOC(=O)c1c(NC(=O)c2ccccc2)sc2c3c(ccc12)OCN(C)C3`, the GI50 with SNB-75 CNS was 1.4 µM; in the test with KM12 colon it was 1.75 µM; in the test on 786-0 renal, 1.79 µM; with UO-31 renal it was 1.36 µM; with LOX IMVI melanoma, 1.62 µM; in the test on EKVX NSCLC, 1.65 µM. The GI50 is 2.07 µM in the test on SK-MEL-2 melanoma, 1.77 µM in the test on HOP-62 NSCLC and 1.03 µM with HCC-2998 colon. Besides, the TGI in the test with SNB-75 CNS was found to be 2.74 µM; with KM12 colon it was 3.3 µM; with 786-0 renal it was 3.4 µM; with UO-31 renal, 2.74 µM; with LOX IMVI melanoma, 3.03 µM; in the test on EKVX NSCLC it was 3.08 µM. The results for the TGI with SK-MEL-2 melanoma, in the test on HOP-62 NSCLC and in the test on HCC-2998 colon were 4.02 µM, 3.82 µM and 2.35 µM, respectively.
For `CN(C)C=NC1CCC(C(C)(C)C)CC1` (stereo unspecified), the TGI in the test on SNB-75 CNS stood at 34.9 µM; in the test with 786-0 renal, 33.3 µM; in the test with UO-31 renal, 30.8 µM; in the test on LOX IMVI melanoma it was 29.7 µM; in the test with EKVX NSCLC, 59.8 µM; in the test on SK-MEL-2 melanoma, 35.4 µM. For the same molecule, the TGI in the test with HOP-62 NSCLC is 32.3 µM; with HCC-2998 colon, 27.9 µM; in the test with OVCAR-8 ovarian, 28.9 µM.
Turning to `CC1CCC(=O)C(C(O)CC2CC(=O)N(c3ccccc3)C(=O)C2)C1` (stereo unspecified), the TGI in the test on SNB-75 CNS, in the test with KM12 colon, in the test with 786-0 renal, with UO-31 renal, in the test on LOX IMVI melanoma and in the test with EKVX NSCLC was above 100 µM in each case. The TGI with HOP-62 NSCLC, in the test with HCC-2998 colon and with OVCAR-8 ovarian was above 100 µM in each case.
Consider `COc1ccc(-c2ccccc2)c2[nH]c3c(c12)CCNC3=O`, for which the TGI in the test on SNB-75 CNS, in the test on KM12 colon, in the test on 786-0 renal, with UO-31 renal, in the test on LOX IMVI melanoma and with EKVX NSCLC was above 100 µM in each case. The TGI with HOP-62 NSCLC, in the test on HCC-2998 colon and with OVCAR-8 ovarian was above 100 µM throughout.
Regarding `CCN(CC)c1ccc(C2NC(=O)c3ccccc3N2)cc1` (stereo unspecified), the TGI in the test with SNB-75 CNS was above 20.3 µM; in the test on 786-0 renal it was above 41.2 µM; in the test with UO-31 renal, above 100 µM; in the test on LOX IMVI melanoma, above 100 µM; with EKVX NSCLC, above 100 µM; in the test on SK-MEL-2 melanoma it was above 100 µM. The TGI in the test with HOP-62 NSCLC is above 100 µM; with HCC-2998 colon, 5.79 µM; in the test on OVCAR-8 ovarian, above 100 µM.
Regarding `CCCCCC[C@@H](C)Nc1nc2ccccc2c2occc12`, the GI50 is 14 µM in the test on KM12 colon; 14.3 µM in the test on 786-0 renal; 2.05 µM with UO-31 renal; 13.9 µM in the test on LOX IMVI melanoma; 0.39 µM in the test with EKVX NSCLC; 1.32 µM in the test with SK-MEL-2 melanoma. For the same molecule, the GI50 in the test with HOP-62 NSCLC was 14.8 µM; in the test with HCC-2998 colon, 9.35 µM; with OVCAR-8 ovarian it was 20.7 µM. Also, the TGI is 34.4 µM in the test on KM12 colon; 27.8 µM with 786-0 renal; 17.2 µM in the test on UO-31 renal; 26.9 µM with LOX IMVI melanoma; 5 µM in the test on EKVX NSCLC; 20.5 µM with SK-MEL-2 melanoma. For the same molecule, the TGI is 28 µM with HOP-62 NSCLC, 21.5 µM with HCC-2998 colon and above 100 µM in the test on OVCAR-8 ovarian.
On to `Cc1c(-c2ccc(O)cc2)oc(=O)c2ccc(O)cc12`, for which the GI50 in the test with KM12 colon is 60.9 µM; with 786-0 renal, 50.7 µM; in the test on UO-31 renal, 69.9 µM; in the test with LOX IMVI melanoma it was above 100 µM; with EKVX NSCLC it was 54.6 µM; in the test with SK-MEL-2 melanoma it was above 100 µM. The GI50 in the test on HOP-62 NSCLC was 41 µM; in the test on HCC-2998 colon it was 36.9 µM; in the test on OVCAR-8 ovarian it was 83.8 µM. The TGI in the test on KM12 colon, in the test with 786-0 renal, in the test with UO-31 renal, in the test on LOX IMVI melanoma, in the test on EKVX NSCLC and with SK-MEL-2 melanoma was above 100 µM throughout. Also, the TGI with HOP-62 NSCLC, in the test with HCC-2998 colon and with OVCAR-8 ovarian was above 100 µM in each case.
Turning to `CN(C)C(=O)NC(=S)N(C)C`, the TGI with SNB-75 CNS, in the test on KM12 colon, in the test with 786-0 renal, in the test on UO-31 renal, in the test on EKVX NSCLC and in the test with SK-MEL-2 melanoma was above 100 µM each time. Further, the TGI with HOP-62 NSCLC is 1.52 µM; in the test on HCC-2998 colon, above 100 µM; in the test with OVCAR-8 ovarian, above 100 µM.
